Measured values published in publication PMC4386733 (Cell, 2013).
“Also recorded” adds a separate entry of the source.

Legend:
hSTING^R232 [1] = biological target: T1, hSTING^R232 (Homo sapiens, UniProt Q86WV6, H232R); conditions: ITC, Chen laboratory; ref Zhang et al., 2013; cited from earlier work
hSTING^H232 (aa 140–379) = hSTING^H232 (aa 140–379) (Homo sapiens, UniProt Q86WV6, H232R); test: ITC binding to hSTING^H232; conditions: complex printed as hSTING^H232 in b72 (Figure 4C)
hSTING^H232 = hSTING^H232 (Homo sapiens, UniProt Q86WV6); test: IFNB1 luciferase reporter in HEK293T cells, hSTING^H232; conditions: cGAMP isomers and c[di-GMP] with digitonin, DMXAA in medium
Sequence of hSTING^H232 (Q86WV6 whole entry): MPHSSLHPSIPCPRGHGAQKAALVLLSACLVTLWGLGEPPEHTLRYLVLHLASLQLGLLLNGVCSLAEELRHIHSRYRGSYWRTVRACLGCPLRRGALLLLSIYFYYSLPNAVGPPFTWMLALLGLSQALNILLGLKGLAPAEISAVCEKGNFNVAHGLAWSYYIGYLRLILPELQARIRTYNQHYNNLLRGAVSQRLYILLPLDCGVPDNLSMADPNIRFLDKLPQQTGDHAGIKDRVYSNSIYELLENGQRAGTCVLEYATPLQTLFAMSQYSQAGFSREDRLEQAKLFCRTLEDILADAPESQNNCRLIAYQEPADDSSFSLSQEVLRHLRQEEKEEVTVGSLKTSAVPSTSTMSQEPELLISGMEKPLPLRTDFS

THP1 cells = test: CXCL10 ELISA in THP1 cells after cGAMP stimulation; assay type: cell-based, human; conditions: for EC50 comparison: Digitonin-mediated permeabilization
mSting = conditions: ref Conlon et al., 2013; cited from earlier work
hSTING S162I mutant = hSTING S162I mutant (Homo sapiens, UniProt Q86WV6, S162I); test: IFNB1 luciferase reporter in HEK293T cells, hSTING S162I; assay type: cell-based; conditions: HEK293T cellular assay
Sequence of hSTING S162I mutant (Q86WV6 whole entry S162I): as the sequence (Q86WV6 whole entry) above, with S162I counted along it

[2] = biological target: hSTING^H232/A162 (S162A mutant) (Homo sapiens, UniProt Q86WV6, S162A); test: ITC binding to S162A mutant of hSTING^H232
Sequence of hSTING^H232/A162 (S162A mutant) (Q86WV6 140-379 S162A): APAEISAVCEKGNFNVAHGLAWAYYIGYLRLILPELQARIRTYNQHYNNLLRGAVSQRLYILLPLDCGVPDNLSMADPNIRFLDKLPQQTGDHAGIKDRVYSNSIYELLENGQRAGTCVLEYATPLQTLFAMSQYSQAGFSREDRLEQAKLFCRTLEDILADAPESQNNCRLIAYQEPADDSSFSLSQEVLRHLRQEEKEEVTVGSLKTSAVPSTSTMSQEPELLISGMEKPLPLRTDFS

hSTING^R232/A162 = hSTING^R232/A162 (Homo sapiens, UniProt Q86WV6, H232R/S162A); test: ITC binding to hSTING^R232/A162
Sequence of hSTING^R232/A162 (Q86WV6 140-379 S162A/H232R): as the sequence (Q86WV6 140-379 S162A) above, with H93R counted along it

hSTING = conditions: ref Conlon et al., 2013; cited from earlier work
BMDMs = test: Western blot of Tbk1 and Irf3 phosphorylation in BMDMs; assay type: cell-based, mouse; conditions: 2 and 4 hr after treatment, compared to the two other isomers
[3] = system: bone-marrow-derived macrophages (BMDMs); conditions: 20 µM added to medium, 4 hr, relative to mock treatment
hSTING^R232 [4] = biological target: T1, hSTING^R232; test: IFNB1 luciferase reporter in HEK293T cells, hSTING^R232; conditions: digitonin delivery
hSTING^THP1 = hSTING^THP1 (Homo sapiens, UniProt Q86WV6, G230A/H232R/H72R/R293Q); test: IFNB1 luciferase reporter in HEK293T cells, hSTING^THP1; conditions: digitonin delivery, c[di-GMP] 5 and 10 µM
Sequence of hSTING^THP1 (Q86WV6 whole entry H72R/G230A/H232R/R293Q): as the sequence (Q86WV6 whole entry) above, with H72R, G230A, H232R, R293Q counted along it

[5] = addition to medium without Digitonin, 18 hr

T1 sequence (Q86WV6 whole entry H232R, the tested form may be a part): as the sequence (Q86WV6 whole entry) above, with H232R counted along it
Sequence of hSTING^H232 (aa 140–379) (Q86WV6 140-379 H232R): as the sequence (Q86WV6 140-379 S162A) above, with A23S, H93R counted along it

Nc1nc2c(ncn2[C@@H]2O[C@@H]3COP(=O)(O)O[C@@H]4[C@H](O)[C@@H](COP(=O)(O)O[C@@H]2[C@@H]3O)O[C@H]4n2cnc3c(N)ncnc32)c(=O)[nH]1
Kd (hSTING^R232 [1]): 280 nM | Kd (hSTING^H232 (aa 140–379)): 170 nM | IFN reporter response (hSTING^H232): no significant differences in stimulation | EC50 comparison (THP1 cells): no difference in the EC50 values | stimulation more effective than c[G(2′,5′)pA(3′,5′)p] (THP1 cells; [5]): 2.9 fold | stimulation more effective than c[G(3′,5′)pA(3′,5′)p] (THP1 cells; [5]): 4.8 fold

Cc1ccc2c(=O)c3cccc(CC(=O)O)c3oc2c1C [DMXAA, 5,6-dimethylxanthenone-4-acetic acid]
activation of mSting (mSting): activates mSting | IFN induction (hSTING S162I mutant): IFN induction was not observed | IFN reporter response (hSTING^H232): nonresponsive | binding (ITC) ([2]; 25°C): binding | stoichiometry N value of binding curve ([2]; expected 1): ~1.5 | binding (ITC) (hSTING^R232/A162; 25°C): binding | stoichiometry N value of binding curve (hSTING^R232/A162; expected 1): ~1.5 | effect on hSTING (hSTING): no effect on hSTING

Nc1nc2c(ncn2[C@@H]2O[C@@H]3COP(=O)(O)O[C@H]4[C@@H](O)[C@H](n5cnc6c(N)ncnc65)O[C@@H]4COP(=O)(O)O[C@@H]2[C@@H]3O)c(=O)[nH]1 [c[G(2′,5′)pA(3′,5′)p]]
EC50 comparison (THP1 cells): no difference in the EC50 values

Nc1nc2c(ncn2[C@@H]2O[C@@H]3COP(=O)(O)O[C@H]4[C@@H](O)[C@H](n5cnc6c(N)ncnc65)O[C@@H]4COP(=O)(O)O[C@H]3[C@H]2O)c(=O)[nH]1 [c[G(3′,5′)pA(3′,5′)p]]
Tbk1 and Irf3 protein phosphorylation (BMDMs): highest levels of Tbk1 and Irf3 protein phosphorylation | Ccl5 mRNA level increase [3]: 38 fold | Ifnb1 mRNA level increase [3]: 1024 fold | Il6 mRNA level increase [3]: 2624 fold

Nc1nc2c(ncn2[C@@H]2O[C@@H]3COP(=O)(O)O[C@H]4[C@@H](O)[C@H](n5cnc6c(=O)[nH]c(N)nc65)O[C@@H]4COP(=O)(O)O[C@H]3[C@H]2O)c(=O)[nH]1 [c[di-GMP]]
IFN reporter response (hSTING^R232 [4]): residual response to high concentrations of c[di-GMP] | IFN reporter response (hSTING^H232): nonresponsive | IFN reporter response (hSTING^THP1): residual response to high concentrations of c[di-GMP]; also recorded: reduced IFN-pathway activation
